Experimental findings from patent US4892882A, “Carbamoyloxy-isoxazole derivatives, their preparation and insecticidal compositions containing them” (priority 1980, dated 1990) are described below.

The test system of data set [1] is green peach aphid (Myzus persicae). In words: Control of green peach aphid, systemic activity. The data set is classed as in vivo. The following applies: 72 hours, 25° C., read-out: Percentage mortality of green peach aphid, Systemic. On the procedure: (§1) A wettable powder was prepared by homogeneously mixing and pulverizing three times in a hammer mill 10 parts by weight of one of the test compounds indicated in Tables 2 and 3, 4 parts by weight of sodium dodecylbenzene sulphonate, 2 parts by weight of polyvinyl alcohol and 84 parts by weight of clay. The wettable powder thus prepared was then diluted with water to the concentration indicated in Table 1, and then 0.01% w/v of Gramin (a spreader) was added.
The suspensions were then poured into 30 ml bottles. Leaves of the Chinese mustard "Komatsuna" bearing green peach aphids were then placed in the bottles and the mouths of the bottles were plugged with cotton wool. The bottles were placed in a room maintained at 25° C. for 72 hours, after which the percentage mortality of the aphids was assessed.

The test system is the same in data set [2]. In words: Control of green peach aphid, contact activity. The following applies: topical, 72 hours, 25° C., read-out: Percentage mortality of green peach aphid, Contact. Type of data set: in vivo. How it is done:
as §1
The resulting diluted solution was then sprayed onto the leaves of a cabbage bearing green peach aphids (Myzus persicae) in an amount of 10 ml per leaf. The leaf stalk of each leaf was then placed in a 30 ml bottle containing water and the mouth of the bottle was plugged with cotton wool. The bottles were then left in a room maintained at 25° C.

Data set [3] has as its system green rice leafhopper (Naphotettix cincticeps). In words: Activity against the green rice leafhopper, dust on rice seedlings. Type of data set: in vivo. Particulars: Nephotettix cincticeps, topical, 10 mg per pot, resistant strain, final instar larvae, 72 hours, 25° C., read-out: Percentage mortality, Green rice leafhopper. On the procedure: (§2) A dust was prepared by homogeneously mixing and pulverizing twice with a pulverizer 2 parts by weight of each in turn of the test compounds indicated in Table 4 and 98 parts by weight of clay. The dusts were then sprayed onto rice seedlings planted in plastic pots and covered with a plastic cylinder in amounts sufficient to provide 10 mg of the […] dust per pot (corresponding to 1.4 kg of dust per 10 ares). 10-15 of the final instar larvae of the green rice leafhopper (Naphotettix cincticeps) or of the brown planthopper (Nilaparvata lugens) of strains known to be resistant both to conventional organic phosphorus and carbamate insecticides were released into each pot. After maintaining the pots at 25° C. for 72 hours, the percentage mortality of the larvae was assessed. Each test was carried out twice and the results averaged.

Data set [4] deals with brown planthopper (Nilaparvata lugens). In words: Activity against the brown planthopper, dust on rice seedlings. The data set is classed as in vivo. The following applies: topical, 10 mg per pot, resistant strain, final instar larvae, 72 hours, 25° C., read-out: Percentage mortality, Brown planthopper. How it is done:
as §2

Data set [5] in a line: Toxicity test in mice, mortality after 7 days (Litchfield and Wilcoxon). The following applies: mouse, in vivo. More on the design: species or system mice (ddY-SLC). How it is done:
Each of the compounds listed in Table 1 was administered in the form of a suspension, to which 0.5% w/v gum tragacanth had been added, to a group of 5 week old ddY-SLC series mice. Each test group consisted of 10 male and 10 female mice. The LD50 value was calculated, by the method of Litchfield and Wilcoxon [J. Pharmac. Exp. Ther. 96, 99 (1949)], from the mortality rate after 7 days.

The next data set concerns brown planthopper. Nature of the data set: Activity against the brown planthopper (mixed formulation). The data set is classed as in vivo. Particulars: Nilaparvata lugens, topical; for mortality at 50 mg: read-out: percentage mortality, insecticide alone (Compound 1 0 mg). On the procedure: Soil and water were placed into plastic pots having inside diameters and heights each of about 10 cm to prepare the pots for submerged cultivation,with water to a depth of about 2 cm. Rice seedlings were then planted in the pots and maintained in a greenhouse, until they had grown to a height of about 15 cm.
Dusts were prepared, each containing 0.1% w/w of Compound No. 1 or of the known organic phosphate or carbamate insecticides listed in Table 5, and these were homogeneously applied, in the amounts specified in the Table, to each pot. 10-15 of the final instar larvae of the brown planthopper were then released onto each pot. The pots were then covered and maintained at 25° C. for 72 hours, after which the percentage mortality of the larvae was assessed.
The experiments were conducted using the known organic phosphate and carbamate insecticides either alone or together with Compound No. 1 (50 mg). The percentage mortality achieved using Compound No. 1 alone in an amount of 50 mg was also assessed and found to be 0%. The expected percentage mortality of the combination of Compound No. 1 with the known organic phosphate and carbamate insecticides was calculated by the method of C. I. Bliss [Ann. Appl. Biol. 26, 585 (1939)] and is shown in parentheses in the Table.

Data set [6] has as its system green peach aphids of a strain resistant to organic phosphate insecticides. In words: Activity against green peach aphids (mixed formulation). The data set is classed as in vivo. Particulars: Myzus persicae, topical, read-out: Percentage mortality. How it is done:
Emulsifiable concentrates containing a total of 25% by weight of active ingredient or ingredients were prepared as described in Example 22 and diluted with water to the concentrations given in the following Table 6. Each emulsion contained as active ingredient Compound No. 1, Compound No. 9 or the known insecticide isoxathion alone or contained a mixture of isoxathion and Compound No. 1 or No. 9. The diluted emulsions were sprayed, in an amount of 10 ml per leaf, onto the leaves of the Chinese mustard "Komatsuna" bearing green peach aphids of a strain known to be resistant to organic phosphate insecticides. The leaf stalks of the leaves were placed into 30 ml bottles and the mouths of the bottles were plugged with cotton wool. After maintaining the leaves at 25° C. for 72 hours, the percentage mortality was assessed and the results are shown in Table 6. The expected percentage mortality of the combinations of Compound No. 1 or No. 9 with Isoxation is shown in parentheses in the table.

The mark [7] stands for this setting: 0.1% dust 50 mg, 72 hours, 25° C.

Read-outs that look alike come from different tables or passages of the source.

As to `CCS(=O)(=O)Cc1cc(OC(=O)N(C)C)no1` [compound 8, 3-Dimethylcarbamoyloxy-5-ethylsulphonylmethylisoxazole], the mortality at 6.25 ppm in data set [1] was 85%. In addition, the mortality at 50 ppm in data set [2] amounted to 80%.
Taken in the same sequence, the figures for `CC(C)SCc1cc(OC(=O)N(C)C)no1` [compound 4, 3-Dimethylcarbamoyloxy-5-isopropylthiomethylisoxazole] were 96% and 81%.
Taken in the same sequence, the figures for `CN(C)C(=O)Oc1noc(CS(C)(=O)=O)c1Cl` [Compound No. 12, 4-Chloro-3-dimethylcarbamoyloxy-5-methylsulphonylmethylisoxazole] were 90% and 82%.
Take `CCSCc1cc(OC(=O)N(C)C)no1` [Compound No. 2, 3-Dimethylcarbamoyloxy-5-ethylthiomethylisoxazole]: the values for the mortality at 10 mg/pot in data set [3] and in data set [4] were 67% and 95%, respectively. The LD50 at 168 h came out at 104 mg/kg in data set [5] (female mice) and 125 mg/kg in data set [5] (male mice). Further, the mortality at 6.25 ppm in data set [1] turned out to be 100%. Besides, in data set [2], the mortality at 50 ppm amounted to 100%.
`CCSCc1onc(OC(=O)N(C)C)c1Cl` [compound 10, 4-Chloro-3-dimethylcarbamoyloxy-5-ethylthiomethylisoxazole]: the mortality at 6.25 ppm in data set [1] was 100%. In data set [2], the mortality at 50 ppm was 97%.
In the case of `Cc1cc(OC(=O)N(C)C)no1` [3-Dimethylcarbamoyloxy-5-methylisoxazole, reference compound], in data set [3], the mortality at 10 mg/pot came to 9%. Moreover, in data set [4], the mortality at 10 mg/pot was determined as 22%. In data set [5] (male/female mice), this compound registered an LD50 at 168 h of 31.2 mg/kg. Moreover, in data set [1], the mortality at 1.56 ppm is 74% and the mortality at 6.25 ppm is 89%. Also, in data set [2], the mortality at 12.5 ppm came out at 34% and the mortality at 50 ppm stood at 84%.
On to `CNC(=O)Oc1ccccc1C(C)C` [MIPC, 2-Isopropylphenyl N-methylcarbamate], for which the mortality at 50 mg in the data set with brown planthopper (setting [7]) was 25%.
In the case of `CSCc1onc(OC(=O)N(C)C)c1I` [compound 14, 3-Dimethylcarbamoyloxy-4-iodo-5-methylthiomethylisoxazole], the mortality at 6.25 ppm in data set [1] worked out at 100%. In data set [2], the mortality at 50 ppm was 86%.
Taken in the same sequence, the figures for `COCc1cc(OC(=O)N(C)C)no1` [compound 15, 3-Dimethylcarbamoyloxy-5-methoxymethylisoxazole] were 100% and 84%.
On to `CSCc1onc(OC(=O)N(C)C)c1Br` [compound 13, 4-Bromo-3-dimethylcarbamoyloxy-5-methylthiomethylisoxazole], for which, in data set [1], the mortality at 1.56 ppm is 100% and the mortality at 6.25 ppm came out at 100%. In data set [2], the mortality at 12.5 ppm worked out at 99% and the mortality at 50 ppm was 100%.
With `CN(C)C(=O)Oc1cc(C[S+](C)[O-])on1` (stereo not shown) [Compound No. 5, 3-Dimethylcarbamoyloxy-5-methylsulphinylmethylisoxazole], the mortality at 6.25 ppm in data set [1] is 100%. Besides, the mortality at 50 ppm in data set [2] is 86%.
With `CCOP(=S)(OCC)Oc1cc(-c2ccccc2)on1` [Isoxathion, O,O-Diethyl O-(5-phenyl-3-isoxazolyl)phosphorothioate, reference compound], the mortality at 25 ppm in data set [6] (Isoxathion 25 ppm, 72 hours, 25° C.) stood at 0%. Also, in data set [6] (Isoxathion 50 ppm, 72 hours, 25° C.), the mortality at 50 ppm amounted to 4.4%.
As to `CC[S+]([O-])Cc1cc(OC(=O)N(C)C)no1` (stereo not shown) [compound 6, 3-Dimethylcarbamoyloxy-5-ethylsulphinylmethylisoxazole], in data set [1], the mortality at 6.25 ppm is 100%. Also, in data set [2], the mortality at 50 ppm came to 88%.
For `CN(C)C(=O)Oc1cc(CS(C)(=O)=O)on1` [compound 7, 3-Dimethylcarbamoyloxy-5-methylsulphonylmethylisoxazole] the same measures were 85% and 82%.
In the case of `CCCSCc1cc(OC(=O)N(C)C)no1` [compound 3, 3-Dimethylcarbamoyloxy-5-propylthiomethylisoxazole], the mortality at 10 mg/pot in data set [3] and in data set [4] was 68% in each case. For the same compound, the mortality at 6.25 ppm in data set [1] is 100%. Further, in data set [2], the mortality at 50 ppm is 86%.
In the case of `CNC(=O)Oc1cccc2ccccc12` [NAC, 1-Naphthyl N-methylcarbamate], the mortality at 50 mg with brown planthopper (72 h) is 29.2%.
Consider `CN(C)C(=O)Oc1noc(C[S+](C)[O-])c1Cl` (stereo not shown) [compound 11, 4-Chloro-3-dimethylcarbamoyloxy-5-methylsulphinylmethylisoxazole], for which the mortality at 6.25 ppm in data set [1] worked out at 100%. Also, the mortality at 50 ppm in data set [2] was 100%.
As for `CSCc1cc(OC(=O)N(C)C)no1` [Compound No. 1, 3-Dimethylcarbamoyloxy-5-methylthiomethylisoxazole], in the data set on brown planthopper (72 h, read-out: percentage mortality, Compound No. 1 alone), the mortality at 50 mg/pot stood at 0%. Also, in data set [3], the mortality at 10 mg/pot was 65%. Besides, in data set [4], the mortality at 10 mg/pot came out at 100%. Besides, in data set [6] (72 h), the mortality at 5 ppm was 25.8% and the mortality at 10 ppm worked out at 59.8%. Further, in data set [5] (female mice), the 50% lethal dose (LD50) at 168 h worked out at 109 mg/kg. Moreover, the LD50 at 168 h in data set [5] (male mice) is 110 mg/kg. Also, in data set [1], the mortality at 1.56 ppm amounted to 100% and the mortality at 6.25 ppm is 100%. In data set [2], the mortality at 12.5 ppm came out at 83% and the mortality at 50 ppm is 100%.
With `CNC(=O)Oc1cccc(C)c1` [MTMC, 3-Tolyl N-methylcarbamate], the mortality at 50 mg with brown planthopper (setting [7]) turned out to be 20.8%.
With `CSCc1onc(OC(=O)N(C)C)c1Cl` [Compound No. 9, 4-Chloro-3-dimethylcarbamoyloxy-5-methylthiomethylisoxazole], the mortality at 10 mg/pot in data set [4] stood at 100%. For the same compound, in data set [6] (72 h), the mortality at 2.5 ppm turned out to be 20.1% and the mortality at 5 ppm amounted to 38.4%. Besides, in data set [1], the mortality at 1.56 ppm stood at 100% and the mortality at 6.25 ppm turned out to be 100%. Also, in data set [2], the mortality at 12.5 ppm amounted to 90% and the mortality at 50 ppm is 100%.

One may read the mortality as the share of the test organisms that died. For orientation: LD50 means the dose at which mortality reaches 50%. The low end stands for a more toxic substance, the high end for a less toxic substance.
